Results as given in patent publication US12096770B2, “Method for preparing an insect repellent agent” (CENTRE NATIONAL DE LA RECHERCHE SCIENTIFIQUE, priority 2019, dated 2024).
Values after ≈ are worked out from the molar mass of the structure shown. Values joined by “and” are separate entries in the source; they are usually repeats but may differ in a detail not shown here. Equal values may be shown once.

Legend:
[1] = system: Aedes albopictus; test: Behavioural (blood-feeding) repellency test on tiger mosquitoes with feeders covered by pig intestinal skin; format: in vivo; conditions: for % Repellency: 1 hour, relative to EtOH negative control, mean ± standard deviation of 16 replicates; for effect of added compound on repellent activity of PMD: added to commercial cis/trans PMD 75/25 at 200 mg/m^2 in EtOH
Method: Testing was performed as to the activity of the compositions obtained by the method according to the invention on the behaviour of the tiger mosquito, Aedes albopictus.
The behavioural tests were carried out at the Montpellier Vectopôle, which is a research centre that collaborates with the WHO for the evaluation of insecticides in public health.
The tests were carried out on mosquitoes aged 5 to 9 days old after their evolution from pupae to adult.
In preparation for the experiment, the mosquitoes were […] on the day prior thereto, in order to promote their appetite for the test to occur the subsequent day.
Each cup contains a damp cotton. The female mosquitoes were removed from the cage making use of a tube that enables aspiration thereof. They were then introduced into each experiment cup (10 mosquitoes per cup).
The tests were carried out on plexiglass racks serving as supports for glass bells known as feeders. The latter are connected to each other by plastic pipes wherein water circulates at 37° C.
Pig intestinal skin was used to mimic human skin in the experiment. The pieces of intestinal skin are positioned and stretched over the feeders.
The repellent is diluted in ethyl alcohol (aka ethanol or EtOH) and is deposited on the skin using a micropipette and then spread over the entire surface. […] If the composition tested is a mixture of at least two compounds, one of which is PMD, the said composition is diluted in ethanol until 0.02036 mg/μL of PMD is obtained.
The feeders are turned over, then 300 μL of sheep blood are placed in each feeder. The cups are inserted under each feeder.
Polystyrene plates are inserted between the lines of repellent so as to avoid possible interactions of odours. The duration of the experiment is one hour. The cups are then placed in a freezer at −20° C. for a period of 40 minutes. After freezing, the contents of one cup are placed between two sheets of paper, with the entirety thereof then being crushed with a plexiglass plate. The counting of the blood-fed (engorged) mosquitoes is done based on the number of red dots on the sheet of paper. The results are expressed as a percentage of repellency (100% −X% of blood-feeding). The percentage of blood-feeding is defined in relation to the EtOH negative control. DEET and commercial cis/trans PMD 75/25 at 200 mg/m^2 were used as positive controls.
The results obtained were statistically analysed using R software (R Development Core Team. R: A language and environment for statistical computing. R Foundation for Statistical Computing, Vienna, Austria. ISBN 3-900051-07-0, 2013) and represent the mean of 16 replicates. The percentage repellency values are presented as a mean±standard deviation. The R software also makes it possible to compare two percentage repellency values by means of calculating the quantity p. This quantity p is a probability.

[2] = system: olfactory receptors of Aedes albopictus; test: Orientation tests in ElectroAntennogGraphy coupled with Gas Chromatography
Method: Orientation tests in ElectroAntennogGraphy coupled with Gas Chromatography were carried out.

[3] = system: acetylcholinesterase; conditions: cited from earlier work

Compound | % Repellency ([1]; 200 mg/m^2 (of PMD) in EtOH) | effect of added compound on repellent activity of PMD [1] | also measured
CC1CCC(C(C)(C)O)C(O)C1 (stereo not drawn) [Commercial trans PMD, p-menthane-3,8-diol] | 57 ± 6% | – | –
CC(C)=CCCC(C)CCO (stereo not drawn) [citronellol, 3,7-dimethyloct-6-en-1-ol] | – | – | recognition in ElectroAntennogGraphy [2]: recognised at very low doses
CC1CCC(C(C)(C)O)C(O)C1 (mixture of isomers) [Commercial cis/trans PMD 75/25 derived from S citronellal] [p-menthane-3,8-diol] | 41 ± 3% | – | –
C=C(C)C1CCC(C)CC1O (stereo not drawn) [isopulegol, 5-methyl-2-prop-1-en-2-ylcyclohexan-1-ol] | – | may enhance the repellent activity of PMD | –
CC1CCC(C(C)(C)O)C(O)C1 (stereo not drawn) [PMD, (2-hydroxypropan-2-yl)-5-methylcyclohexan-1-ol] | – | – | recognition in ElectroAntennogGraphy [2]: recognised at very low doses
CCN(CC)C(=O)c1cccc(C)c1 [DEET, N,N diethyl-meta-toluamide] | – | – | % Repellency ([1]; 110 mg/m^2 in EtOH): 63 ± 5% and 49 ± 4% and 68 ± 10% and 43 ± 1% and 41 ± 6% and 63 ± 8% and 73 ± 7% and 28 ± 8%; acetylcholinesterase inhibition [3]: inhibits
CC1CCC(C(C)(C)O)C(O)C1 (racemic) [Commercial cis/trans PMD 75/25, p-menthane-3,8-diol] | 79 ± 4% and 59 ± 14% and 68 ± 2% and 55 ± 10% and 60 ± 5% and 65 ± 8% and 69 ± 13% and 63 ± 9% and 59 ± 9% and 56 ± 13% | – | % Repellency ([1]; 200 mg/m^2 (of PMD) in EtOH, listed as Commercial cis/trans PMD 75/25 derived from RS citronellal (racemic mixture)): 34 ± 1%; ED 50 expressed as concentration ([1]; concentration in EtOH tantamount to 200 mg/m^2): 20.36 mg/mL (≈ 118 mM); ED 50 (median effective dose) ([1]; dose deposited on skin): 200 mg/m^2
CC(C)=CCCC(C)CC=O (stereo not drawn) [citronellal, 3,7-dimethyloct-6-en-1-al] | – | does not boost PMD activity | –
CC1CCC(C(C)(C)O)C(O)C1 (stereo not drawn) [Commercial cis PMD, p-menthane-3,8-diol] | 64 ± 15% | – | –
CC1CCC(C(C)(C)O)C(O)C1 (mixture of isomers) [Commercial cis/trans PMD 60/40, p-menthane-3,8-diol] | 68 ± 15% | – | –
C=C1CC/C=C(\C)CC[C@@H]2[C@@H]1CC2(C)C [caryophyllene, (1R,4E,9S)-4,11,11-trimethyl-8-methylidenebicyclo[7.2.0]undec-4-ene] | – | enhances the repellent activity of PMD | recognition in ElectroAntennogGraphy [2]: recognised at very low doses
CC(C)=CCCC(C)CC1OC2CC(C)CCC2C(C)(C)O1 (stereo not drawn) [acetals] | – | enhance the repellent activity of PMD | –
CC1CCC(C(C)(C)O)C(O)C1 (mixture of isomers) [Commercial cis/trans PMD 75/25 derived from R citronellal] [p-menthane-3,8-diol] | 24 ± 2% | – | –
